Biological target: T1, human EP4 receptor (Homo sapiens, UniProt P35408)
T1 construct: expressed in transfected cells; host or cells: Chinese Hamster Ovary (CHO) cells infected with recombinant Semliki Forest Virus (SFV-1) particles; membranes prepared from these cells
Assay: Human EP4 Scintillation Proximity Assay (radioligand binding)
Details: membranes of CHO cells expressing human EP4 receptor; [3H]-prostaglandin E2 radioligand; pKi from IC50 by Cheng-Prusoff; read-out: pKI at EP4 receptors (converted)
Protocol: Quantification of radioligand binding by scintillation proximity assay (SPA) is a long-established principle. Briefly, the affinity of compounds for a receptor is assessed by the specific competition between known quantities of radiolabelled ligand and compound for that receptor. Increasing concentrations of compound reduce the amount of radiolabel that binds to the receptor. This gives rise to a diminishing scintillation signal from SPA beads coated with membranes that bear the receptor. The signal may be detected with a suitable scintillation counter and the data generated may be analysed with suitable curve-fitting software.
The human EP4 SPA assay (hereafter referred to as ‘the assay’) utilises membranes prepared from Chinese Hamster Ovary (CHO cells) infected with Semliki Forest Virus (SFV). Genetically engineered SFV-1 viral particles containing the genetic sequence of the human EP4 receptor were used to infect CHO cells resulting in expression of the receptor protein in cellular membranes. Cells washed free of media are homogenised in a pH-buffered medium containing peptidase inhibitors. A suitable buffer is of the following composition: 50 mM HEPES, 1 mM EDTA, 25 μg/ml bacitracin, 100 μM leupeptin, 1 mM PMSF, 2 μM Pepstatin A, pH adjusted to 7.4 with KOH. Following removal of cell debris by a low-speed centrifugation, a pellet of membranes is prepared by a high-speed (48000 g) centrifugation of the resulting supernatant. Membrane suspensions such as that described may be stored at −80° C. until used.
For assay, membranes expressing human EP4 receptors are diluted in a pH-buffered medium and mixed with SPA beads coated with a suitable substance to facilitate the adhesion of membranes to the beads. The concentrations of membrane protein and SPA beads chosen should result in SPA binding signal of at least 300 corrected counts per minute (CCPM) when tritiated radioligand at a concentration close to its Kd (affinity value) is combined with the mixture. Non-specific binding (nsb) may be determined by competition between the radiolabelled ligand and a saturating concentration of unlabelled ligand. In order to quantify the affinity of EP4 receptor ligands, compounds are diluted in a stepwise manner across the wells of a 96-well plate. Radioligand, compound, and unlabelled ligand are then added to a 96-well plate suitable for the measurement of SPA binding signals prior to the addition of bead/membrane mixture to initiate the binding reaction. Equilibrium may be achieved by incubation at room temperature for 120 minutes prior to scintillation counting. The data so generated may be analysed by means of a computerised curve-fitting routine in order to quantify the concentration of compound that displaces 50% of the specific radioligand binding (IC50). The affinity (pKi) of the compound may be calculated from the IC50 by application of the Cheng-Prusoff correction. Suitable reagents and protocols are: reaction buffer containing 50 mM HEPES, 10 mM MgCl2, pH adjusted to 7.4 with KOH; SPA beads coated with wheatgerm agglutinin; 1.25 nM [^3H]-prostaglandin E2 as radioligand; 10 μM prostaglandin E2 as unlabelled ligand; a three-fold dilution series of compound starting at 10 μM and ending at 0.3 nM is adequate.

T1 sequence (P35408 whole entry): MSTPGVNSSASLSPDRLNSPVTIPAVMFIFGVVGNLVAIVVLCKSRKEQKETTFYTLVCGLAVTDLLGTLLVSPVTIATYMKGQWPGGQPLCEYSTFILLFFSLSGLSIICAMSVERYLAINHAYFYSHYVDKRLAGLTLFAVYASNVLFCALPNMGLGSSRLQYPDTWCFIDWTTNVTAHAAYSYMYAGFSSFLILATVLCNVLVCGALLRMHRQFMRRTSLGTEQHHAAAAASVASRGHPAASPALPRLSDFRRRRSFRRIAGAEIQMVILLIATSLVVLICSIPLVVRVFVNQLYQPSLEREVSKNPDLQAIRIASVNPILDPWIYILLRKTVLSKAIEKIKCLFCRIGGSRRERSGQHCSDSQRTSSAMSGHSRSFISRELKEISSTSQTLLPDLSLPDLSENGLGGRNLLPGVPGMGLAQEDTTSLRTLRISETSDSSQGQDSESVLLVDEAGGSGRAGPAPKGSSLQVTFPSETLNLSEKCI

| SMILES | Ki [µM] |
| --- | --- |
| CCOc1c2c(c(OCC)c3ccccc13)C(=O)N(c1ccc(CS(=O)(=O)NC(=O)Cc3cccc(OC)c3)cc1)C2=O [Example 63] | ≤ 0.1 |
| CCOc1c2c(c(OCC)c3ccccc13)C(=O)N(c1ccc(CS(=O)(=O)NC(=O)Cc3ccc4ccccc4c3)cc1)C2=O [Example 77] | ≤ 0.1 |
| CCOc1c2c(c(OCC)c3ccccc13)C(=O)N(c1ccc(CS(=O)(=O)NC(=O)Cc3ccc4c(c3)OCO4)cc1)C2=O [Example 93] | ≤ 0.1 |
| CCOc1c2c(c(OCC)c3ccccc13)C(=O)N(c1ccc(CS(=O)(=O)NC(=O)C(Cl)c3ccccc3)cc1)C2=O (stereo not drawn) [Example 75] | ≤ 0.1 |
| CCOc1c2c(c(OCC)c3ccccc13)C(=O)N(c1ccc(CS(=O)(=O)NC(=O)Cc3ccc4c(c3)OCO4)cc1)C2 [Example 84] | ≤ 0.1 |
| CCOc1c2c(c(OCC)c3ccccc13)C(=O)N(c1ccc(CS(=O)(=O)NC(=O)Cc3ccc(OC)c(OC)c3)cc1)C2=O [Example 66, 1-[4-(4,9-diethoxy-1,3-dioxo-1,3-dihydro-2H-benzo[f]isoindol-2-yl)phenyl]-N-[(3,4-dimethoxyphenyl)acetyl]methanesulfonamide] | ≤ 0.1 |
| CCOc1c2c(c(OCC)c3ccccc13)C(=O)N(c1ccc(CS(=O)(=O)NC(=O)Cc3ccc(C)c(F)c3)cc1)C2=O [Example 74] | ≤ 0.1 |
| CCOc1c2c(c(OCC)c3ccccc13)C(=O)N(c1ccc(CS(=O)(=O)NC(=O)Cc3cccc(OCc4ccccc4)c3)cc1)C2 [Example 42] | ≤ 0.1 |
| CCOc1c2c(c(OCC)c3ccccc13)C(=O)N(c1ccc(CS(=O)(=O)NC(=O)Cc3cccc(OC(F)(F)F)c3)cc1)C2 [Example 81] | ≤ 0.1 |
| CCOc1ccc(CC(=O)NS(=O)(=O)Cc2ccc(N3Cc4c(c(OCC)c5ccccc5c4OCC)C3=O)cc2)cc1OCC [Example 82] | ≤ 0.1 |
| CCOc1c2c(c(OCC)c3ccccc13)C(=O)N(c1ccc(CS(=O)(=O)NC(=O)Cc3ccc4ccccc4c3)cc1)C2 [Example 48] | ≤ 0.1 |
| CCOc1c2c(c(OCC)c3ccccc13)C(=O)N(c1ccc(CS(=O)(=O)NC(=O)C(C)c3ccc(CC(C)C)cc3)cc1)C2 (stereo not drawn) [Example 40] | ≤ 0.1 |
| CCOc1c2c(c(OCC)c3ccccc13)C(=O)N(c1ccc(CS(=O)(=O)NC(=O)Cc3ccccc3)cc1)C2 [Example 18, 1-[4-(4,9-diethoxy-1-oxo-1,3-dihydro-2H-benzo[f]isoindol-2-yl)phenyl]-N-(phenylacetyl)methanesulfonamide] | ≤ 0.1 |
| CCOc1c2c(c(OCC)c3ccccc13)C(=O)N(c1ccc(CS(=O)(=O)NC(=O)Cc3ccc(C(C)C)cc3)cc1)C2 [Example 27] | ≤ 0.1 |
| CCOc1c2c(c(OCC)c3ccccc13)C(=O)N(c1ccc(CS(=O)(=O)NC(=O)C(C)(C)c3ccccc3)cc1)C2 [Example 22] | ≤ 0.1 |
| CCOc1c2c(c(OCC)c3ccccc13)C(=O)N(c1ccc(CS(=O)(=O)NC(=O)Cc3ccc(CC(C)C)cc3)cc1)C2 [Example 23] | ≤ 0.1 |
| CCOc1c2c(c(OCC)c3ccccc13)C(=O)N(c1ccc(CS(=O)(=O)NC(=O)Cc3cccc4occc34)cc1)C2 [Example 88] | ≤ 0.1 |
| CCOc1c2c(c(OCC)c3ccccc13)C(=O)N(c1ccc(CS(=O)(=O)NC(=O)Cc3ccccc3Cl)cc1)C2 [Example 29] | ≤ 0.1 |
| CCOc1c2c(c(OCC)c3ccccc13)C(=O)N(c1ccc(CS(=O)(=O)NC(=O)Cc3ccc(Cl)cc3)cc1)C2=O [Example 70] | ≤ 0.1 |
| CCOc1c2c(c(OCC)c3ccccc13)C(=O)N(c1ccc(CS(=O)(=O)NC(=O)Cc3ccccc3F)cc1)C2 [Example 32] | ≤ 0.1 |

| SMILES | Ki [µM] |
| --- | --- |
| CCOc1c2c(c(OCC)c3ccccc13)C(=O)N(c1ccc(CS(=O)(=O)NC(=O)Cc3ccccc3CC(=O)OC)cc1)C2 [Example 47] | ≤ 0.1 |
| CCOc1c2c(c(OCC)c3ccccc13)C(=O)N(c1ccc(CS(=O)(=O)NC(=O)Cc3cc(OC)ccc3OC)cc1)C2 [Example 36] | ≤ 0.1 |
| CCOc1c2c(c(OCC)c3ccccc13)C(=O)N(c1ccc(CS(=O)(=O)NC(=O)C3(c4ccccc4)CC3)cc1)C2 [Example 50] | ≤ 0.1 |
| CCOc1c2c(c(OCC)c3ccccc13)C(=O)N(c1ccc(CS(=O)(=O)NC(=O)Cc3scnc3C)cc1)C2 [Example 60] | ≤ 0.1 |
| CCOc1c2c(c(OCC)c3ccccc13)C(=O)N(c1ccc(CS(=O)(=O)NC(=O)C(C)c3ccc4cc(OC)ccc4c3)cc1)C2 (stereo not drawn) [Example 86] | ≤ 0.1 |
| CCOc1c2c(c(OCC)c3ccccc13)C(=O)N(c1ccc(CS(=O)(=O)NC(=O)Cc3cc(C)ccc3C)cc1)C2 [Example 39] | ≤ 0.1 |
| CCOc1c2c(c(OCC)c3ccccc13)C(=O)N(c1ccc(CS(=O)(=O)NC(=O)Cc3ccc(-c4ccccc4)cc3)cc1)C2 [Example 30] | ≤ 0.1 |
| CCOc1c2c(c(OCC)c3ccccc13)C(=O)N(c1ccc(CS(=O)(=O)NC(=O)Cc3ccc(CC)cc3)cc1)C2 [Example 28] | ≤ 0.1 |
| CCOc1c2c(c(OCC)c3ccccc13)C(=O)N(c1ccc(CS(=O)(=O)NC(=O)C(CC)c3ccccc3)cc1)C2=O (stereo not drawn) [Example 64] | ≤ 0.1 |
| CCOc1c2c(c(OCC)c3ccccc13)C(=O)N(c1ccc(CS(=O)(=O)NC(=O)Cc3ccccc3OC)cc1)C2=O [Example 71, 1-[4-(4,9-diethoxy-1,3-dioxo-1,3-dihydro-2H-benzo[f]isoindol-2-yl)phenyl]-N-[(2-methoxyphenyl)acetyl]methanesulfonamide] | ≤ 0.1 |
| CCOc1c2c(c(OCC)c3ccccc13)C(=O)N(c1ccc(CS(=O)(=O)NC(=O)Cc3cccc(F)c3)cc1)C2 [Example 25] | ≤ 0.1 |
| CCOc1c2c(c(OCC)c3ccccc13)C(=O)N(c1ccc(CS(=O)(=O)NC(=O)Cc3ccccc3OC)cc1)C2 [Example 31, 1-[4-(4,9-diethoxy-1-oxo-1,3-dihydro-2H-benzo[f]isoindol-2-yl)phenyl]-N-[(2-methoxyphenyl)acetyl]methanesulfonamide] | ≤ 0.1 |
| CCOc1c2c(c(OCC)c3ccccc13)C(=O)N(c1ccc(CS(=O)(=O)NC(=O)Cc3cccc4ccccc34)cc1)C2=O [Example 76] | ≤ 0.1 |
| CCOc1c2c(c(OCC)c3ccccc13)C(=O)N(c1ccc(CS(=O)(=O)NC(=O)Cc3ccccc3)cc1)C2=O [Example 1, 1-[4-(4,9-diethoxy-1,3-dioxo-1,3-dihydro-2H-benzo[f]isoindol-2-yl)phenyl]-N-(phenylacetyl)methanesulfonamide] | ≤ 0.1 |
| CCOc1c2c(c(OCC)c3ccccc13)C(=O)N(c1ccc(CS(=O)(=O)NC(=O)Cc3cc(F)ccc3F)cc1)C2=O [Example 69] | ≤ 0.1 |
| CCOc1c2c(c(OCC)c3ccccc13)C(=O)N(c1ccc(CS(=O)(=O)NC(=O)C(C)c3ccccc3)cc1)C2=O (stereo not drawn) [Example 68] | ≤ 0.1 |
| CCOc1c2c(c(OCC)c3ccccc13)C(=O)N(c1ccc(CS(=O)(=O)NC(=O)Cc3ccc(C)cc3)cc1)C2=O [Example 67, 1-[4-(4,9-diethoxy-1,3-dioxo-1,3-dihydro-2H-benzo[f]isoindol-2-yl)phenyl]-N-[(4-methylphenyl)acetyl]methanesulfonamide] | ≤ 0.1 |
| CCOc1c2c(c(OCC)c3ccccc13)C(=O)N(c1ccc(CS(=O)(=O)NC(=O)Cc3cccc(OC)c3OC)cc1)C2 [Example 34, 1-[4-(4,9-diethoxy-1-oxo-1,3-dihydro-2H-benzo[f]isoindol-2-yl)phenyl]-N-[(2,3-dimethoxyphenyl)acetyl]methanesulfonamide] | ≤ 0.1 |
| CCOc1c2c(c(OCC)c3ccccc13)C(=O)N(c1ccc(CS(=O)(=O)NC(=O)Cc3ccc(C)cc3)cc1)C2 [Example 20] | ≤ 0.1 |
